Assay results: US5021549A, “Physiologically active substances, probestin and prostatin and production thereof” (priority 1987, dated 1991)

Tests used:
aminopeptidase M = biological target: T1, aminopeptidase M (Sus scrofa, UniProt P15145); assay: Inhibition of aminopeptidase M (L-leucine-β-naphthylamide substrate); type: biochemical; details: read-out: Value of IC50 against Aminopeptidase M (converted)
T1 construct: purchased Boehringer Mannheim Company
T1 sequence (P15145 1-963): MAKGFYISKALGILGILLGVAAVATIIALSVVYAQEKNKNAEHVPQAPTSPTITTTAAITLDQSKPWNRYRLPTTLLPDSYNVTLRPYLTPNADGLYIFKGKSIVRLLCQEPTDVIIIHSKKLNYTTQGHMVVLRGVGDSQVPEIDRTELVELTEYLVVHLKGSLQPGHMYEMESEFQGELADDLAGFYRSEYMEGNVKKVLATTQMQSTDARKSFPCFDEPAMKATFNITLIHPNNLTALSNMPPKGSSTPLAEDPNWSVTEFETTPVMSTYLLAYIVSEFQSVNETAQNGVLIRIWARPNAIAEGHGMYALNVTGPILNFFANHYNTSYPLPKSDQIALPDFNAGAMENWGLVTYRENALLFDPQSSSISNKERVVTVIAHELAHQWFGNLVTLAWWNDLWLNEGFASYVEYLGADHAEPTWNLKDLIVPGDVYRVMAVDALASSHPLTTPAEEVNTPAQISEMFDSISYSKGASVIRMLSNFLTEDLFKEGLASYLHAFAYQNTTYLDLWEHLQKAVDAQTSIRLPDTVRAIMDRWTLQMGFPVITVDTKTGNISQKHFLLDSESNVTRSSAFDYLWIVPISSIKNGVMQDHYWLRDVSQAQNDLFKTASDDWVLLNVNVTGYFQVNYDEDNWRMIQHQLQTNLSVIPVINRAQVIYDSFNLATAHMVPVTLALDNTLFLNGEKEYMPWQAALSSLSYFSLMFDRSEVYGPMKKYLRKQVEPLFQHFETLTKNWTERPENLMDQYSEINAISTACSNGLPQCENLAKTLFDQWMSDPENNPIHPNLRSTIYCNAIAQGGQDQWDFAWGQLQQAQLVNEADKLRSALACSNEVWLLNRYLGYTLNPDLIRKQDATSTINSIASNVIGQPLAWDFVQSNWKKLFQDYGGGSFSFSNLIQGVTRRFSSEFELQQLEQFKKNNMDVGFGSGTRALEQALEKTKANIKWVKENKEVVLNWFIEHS
Protocol: The mixture solution obtained is heated at 37° C. for 3 minutes. To the heated solution is added 0.05 ml of an aqueous solution of aminopeptidase M (a product of Boehringer Mannheim Company; 4 units/mg). The resulting mixture is incubated for 30 minutes at 37° C. for the enzymatic reaction and the resultant reaction mixture is admixed with 1 ml of 1.0 M acetate buffered solution (pH 4.2) containing 10% of a surfectant "Tween" 20 and 0.1% of Fast Garnet GBC (0-aminoazotoluene, diazonium salt) to stop the enzymatic reaction. After allowing the resulting mixture to stand at ambient temperature for 15 minutes, the absorbance of light at 525 nm of the resultant reaction solution is measured, with designating the measured value as value (a). […] The rate (%) of inhibition to the aminopeptidase M is calculated from an equation [(b-a)/b]×100.

Aminopeptidase-A = Aminopeptidase-A (Homo sapiens, UniProt Q07075); assay: Inhibition of aminopeptidase-A
Sequence of Aminopeptidase-A (Q07075 whole entry): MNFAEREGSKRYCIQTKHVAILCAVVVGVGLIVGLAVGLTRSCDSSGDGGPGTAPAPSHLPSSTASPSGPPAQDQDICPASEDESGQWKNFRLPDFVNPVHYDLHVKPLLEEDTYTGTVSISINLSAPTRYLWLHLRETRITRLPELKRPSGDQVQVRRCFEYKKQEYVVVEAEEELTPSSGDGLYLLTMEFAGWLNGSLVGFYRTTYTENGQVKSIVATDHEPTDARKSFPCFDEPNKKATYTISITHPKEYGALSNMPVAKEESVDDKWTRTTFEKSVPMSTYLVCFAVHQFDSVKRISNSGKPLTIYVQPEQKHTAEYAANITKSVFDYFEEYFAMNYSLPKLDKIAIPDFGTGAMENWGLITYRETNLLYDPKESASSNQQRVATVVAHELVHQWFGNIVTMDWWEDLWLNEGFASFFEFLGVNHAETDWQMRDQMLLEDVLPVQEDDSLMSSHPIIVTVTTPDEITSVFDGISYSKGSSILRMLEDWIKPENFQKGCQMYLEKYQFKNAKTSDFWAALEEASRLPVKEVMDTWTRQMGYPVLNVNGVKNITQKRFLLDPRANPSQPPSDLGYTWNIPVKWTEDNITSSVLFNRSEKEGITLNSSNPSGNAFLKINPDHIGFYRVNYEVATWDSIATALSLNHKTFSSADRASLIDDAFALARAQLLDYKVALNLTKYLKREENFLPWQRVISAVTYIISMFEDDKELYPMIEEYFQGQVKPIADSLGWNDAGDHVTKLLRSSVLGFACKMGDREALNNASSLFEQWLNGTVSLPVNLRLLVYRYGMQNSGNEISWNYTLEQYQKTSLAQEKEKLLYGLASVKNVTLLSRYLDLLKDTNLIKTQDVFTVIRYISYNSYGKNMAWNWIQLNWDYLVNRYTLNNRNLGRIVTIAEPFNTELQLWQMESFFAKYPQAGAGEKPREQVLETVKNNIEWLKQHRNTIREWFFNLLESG

Leucine-aminopeptidase = Leucine-aminopeptidase (Homo sapiens, UniProt P28838); assay: Inhibition of leucine-aminopeptidase
Sequence of Leucine-aminopeptidase (P28838 whole entry): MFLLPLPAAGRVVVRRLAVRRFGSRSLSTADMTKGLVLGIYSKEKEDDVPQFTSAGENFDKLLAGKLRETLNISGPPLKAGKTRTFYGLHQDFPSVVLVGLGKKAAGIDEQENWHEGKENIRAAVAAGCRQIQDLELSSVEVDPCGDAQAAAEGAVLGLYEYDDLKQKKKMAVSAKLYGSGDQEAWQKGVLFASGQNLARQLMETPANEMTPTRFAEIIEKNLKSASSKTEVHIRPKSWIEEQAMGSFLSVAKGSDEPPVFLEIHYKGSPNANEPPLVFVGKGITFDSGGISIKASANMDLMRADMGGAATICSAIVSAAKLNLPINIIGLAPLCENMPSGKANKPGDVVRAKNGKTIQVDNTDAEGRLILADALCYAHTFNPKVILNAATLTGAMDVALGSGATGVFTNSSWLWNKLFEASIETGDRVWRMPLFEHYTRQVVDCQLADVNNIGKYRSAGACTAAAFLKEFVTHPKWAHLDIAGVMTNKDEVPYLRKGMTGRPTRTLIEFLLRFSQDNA

[1] = tested on: antibody-forming cells in spleen; assay: Humoral antibody formation: plaque-forming cells in spleen of SRBC-immunized mice (Jerne's hemolytic plaque technique); type: in vivo, CDF-mice; details: for Number of PFC: counted 4 days after SRBC immunization; for T/C (%): PFC number versus control
Protocol: CDF-mice were immunized by intravenous injection of 10^8 sheep red blood cells (SRBC). 1000 μg/mouse, 250 μg/mouse or 62.5 μg/mouse of probestin was administered by intraperitoneal injection into the mice at the time of the immunization with SRBC (0 hour) and then totally three times, namely 24, 48 and 72 hours after the immunization. Four days after the immunization with SRBC, the number of the plaque-forming cell (PFC) (namely, the antibody-forming cells) in spleen was enumerated by the known Jerne's hemolytic plaque technique [Jerne, N.K; A. A. Nordin & C. Henry; "The agar plaque technique for recognizing antibody-producing cells in cell-bound antibodies" pp. 109-122 published by Wister Institute press, Philadelphia (1963)].

mice = assay: Acute toxicity by intravenous injection in mice; type: in vivo
Solubility in solvents = type: physicochemical; details: water and organic solvents
Aminopeptidase-B = Aminopeptidase-B (Homo sapiens, UniProt Q9H4A4); assay: Inhibition of aminopeptidase-B
Sequence of Aminopeptidase-B (Q9H4A4 whole entry): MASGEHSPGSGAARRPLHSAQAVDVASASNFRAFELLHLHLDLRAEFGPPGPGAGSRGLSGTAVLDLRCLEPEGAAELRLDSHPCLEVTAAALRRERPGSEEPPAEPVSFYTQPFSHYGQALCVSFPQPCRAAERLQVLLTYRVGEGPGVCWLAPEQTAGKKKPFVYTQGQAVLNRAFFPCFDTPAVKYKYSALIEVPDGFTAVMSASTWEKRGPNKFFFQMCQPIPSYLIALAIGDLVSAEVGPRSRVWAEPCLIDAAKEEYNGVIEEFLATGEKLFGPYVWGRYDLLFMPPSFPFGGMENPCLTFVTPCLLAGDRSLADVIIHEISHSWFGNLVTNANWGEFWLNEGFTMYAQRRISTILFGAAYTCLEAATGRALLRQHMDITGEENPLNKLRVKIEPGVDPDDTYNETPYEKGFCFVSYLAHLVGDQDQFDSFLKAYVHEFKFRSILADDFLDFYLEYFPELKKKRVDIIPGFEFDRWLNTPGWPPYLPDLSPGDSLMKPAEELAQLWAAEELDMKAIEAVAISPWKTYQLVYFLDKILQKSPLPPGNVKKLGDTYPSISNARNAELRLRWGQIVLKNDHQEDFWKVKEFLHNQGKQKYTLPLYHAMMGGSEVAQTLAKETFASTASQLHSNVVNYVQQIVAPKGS

SMILES	IC50 (aminopeptidase M) [nM]	IC50 (Aminopeptidase-A) [nM]	IC50 (Leucine-aminopeptidase) [nM]	Number of PFC ([1]; 62.5 μg/mouse ip. at 0, 24, 48, 72 h)	T/C (%) ([1]; 62.5 μg/mouse ip.)	Number of PFC ([1]; 250 μg/mouse ip. at 0, 24, 48, 72 h)	T/C (%) ([1]; 250 μg/mouse ip.)	Number of PFC ([1]; 1000 μg/mouse ip. at 0, 24, 48, 72 h)	T/C (%) ([1]; 1000 μg/mouse ip.)	Effect on number of antibody-forming cells in spleen (in words) ([1]; intraperitoneal injection, SRBC-immunized mice, probestin 1000 μg to 62.5 μg/mouse)	LD50 (mice)	Solubility (Solubility in solvents)	Value of IC50 against Aminopeptidase-A (Aminopeptidase-A) [µg/mL]	Value of IC50 against Aminopeptidase-B (Aminopeptidase-B) [µg/mL]	Value of IC50 against Leucine-aminopeptidase (Leucine-aminopeptidase) [µg/mL]
CCCCC[C@H](CC(=O)NO)C(=O)N[C@H](C(=O)N1CCC[C@H]1CO)C(C)C [Actinonin, actinonin, reference compound]	1040	> 259000	2590												
CC(C)C[C@H](NC(=O)[C@@H](O)[C@H](N)Cc1ccccc1)C(=O)N1CCC[C@H]1C(=O)N1CCC[C@H]1C(=O)O [Probestin]				492.540 ± 69.980 × 10^3 /spleen	212.1	631.680 ± 69.560 × 10^3 /spleen	271.8	891.900 ± 162.610 × 10^3 /spleen	384.1	increased number of the antibody-forming cells in the spleen	greater than 250 mg/kg	Readily soluble in water, methanol and dimethyl-sulfoxide, but insoluble in acetone, ethyl acetate, chloroform and hexane	> 100	36.7	0.091
